From patent US9999616B2 (ZENITH EPIGENETICS LTD., priority 2013, dated 2018)

Tests used:
hIL-6 mRNA = assay: Inhibition of hIL-6 mRNA transcription in LPS-stimulated U937 macrophages; type: cell-based, Human; conditions: Homo sapiens, U-937, PMA-differentiated U937 cells, 1 h pretreatment, LPS 3 h, read-out: IL-6 activity
Outline: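 PMA-differentiated U937 macrophages (60 ng/mL PMA, 3 days) pretreated 1 h with compound in 0.1% DMSO, then stimulated with 1 ug/mL E. coli LPS for 3 h at 37° C. IL-6 mRNA quantified by one-step TaqMan qRT-PCR, normalized to cyclophilin; fold expression relative to control, triplicate wells.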

[1] = biological target: Brd4 bromodomain 1 (BRD4(1)) (Homo sapiens, UniProt O60885); assay: Inhibition of tetra-acetylated histone H4 binding to Brd4 bromodomain 1, measured by FRET (HTRF); set-up: made in house; host or cells: E. coli BL21(DE3); conditions: 2 h at room temperature
Outline: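 Inhibition was read as a drop in 665 nm relative to 620 nm HTRF signal after 2 h at room temperature, with IC50 from dose-response curves in duplicate wells. Reactions held 200 nM E. coli-expressed His-tagged bromodomain and 25-50 nM biotinylated tetra-acetylated histone H4 peptide. Buffer was 30 mM HEPES pH 7.4 with KF, CHAPS, BSA and 0.2% DMSO.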

MV4-11 cells = assay: In vivo efficacy in athymic nude mouse acute myeloid leukemia xenograft model using MV4-11 cells; conditions: athymic nude mouse AML xenograft (MV4-11), oral dosing
Method: MV4-11 cells (ATCC) were grown under standard cell culture conditions and (NCr) nu/nu fisol strain of female mice age 6-7 weeks were injected with 5×10^6 cells/animal in 100 μL PBS+100 μL Matrigel in the lower left abdominal flank. By approximately day 18-21 after MV4-11 cells injection, mice were randomized based on tumor volume (L×W×H)/2) of average ˜100-300 mm^3. Mice were dosed orally with compound at 5 to 120 mg/kg b.i.d and/or q.d. on a continuous dosing schedule and at 2.5 to 85 mg/kg q.d. on a 5 day on 2 day off, 100 mg/kg q.d. on a 4 day on and 3 day off, 135 mg/kg q.d. on a 3 day on and 4 day off, 180 mg/kg on a 2 day on and 5 day off and 240 mg/kg on a 1 day on and 6 days off dosing schedules in EA006 formulation at 10 mL/kg body weight dose volume. Tumor measurements were taken with electronic micro calipers and body weights measured on alternate days beginning from dosing period. The average tumor volumes, percent Tumor Growth Inhibition (TGI) and % change in body weights were compared relative to Vehicle control animals. The means, statistical analysis and the comparison between groups were calculated using Student's t-test in Excel.

[2] = system: c-myc in Human AML MV4-11 cells; assay: Inhibition of cMYC expression (mRNA, real-time PCR) in MV4-11 cells; type: cell-based; conditions: 3 h treatment, cMYC mRNA by real-time PCR
Outline: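 MV4-11 cells in IMDM with 10% FBS were treated with increasing compound concentrations (DMSO 0.1%) for 3 h at 37 °C, in triplicate. Isolated mRNA was quantified by one-step TaqMan RT-qPCR, cMYC Ct normalized to cyclophilin, and fold expression given relative to DMSO control.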

hIL-17 mRNA = assay: Inhibition of hIL-17 mRNA transcription in OKT3-stimulated peripheral blood mononuclear cells; type: cell-based; conditions: human PBMC, OKT3 stimulation 6 h, read-out: IL-17 Activity
Method: Human peripheral blood mononuclear cells were plated (2.0×10^5 cells per well) in a 96-well plate in 45 μL OpTimizer T Cell expansion media (Life Technologies) containing 20 ng/ml IL-2 and penicillin/streptomycin. The cells were treated with increasing concentrations of the test compound or DMSO (0.1%), and incubated at 37° C., 5% CO2 for 1 h before addition of 10× stock OKT3 antibody at 10 ug/ml in media. Triplicate wells were used for each concentration. Cells were incubated at 37° C., 5% CO2 for 6 h before the cells were harvested. At time of harvest, cells were pelleted by centrifugation at 800 rpm for 5 min. Cells were harvested using the mRNA Catcher PLUS kit according to manufacturer's instructions. The eluted mRNA was then used in a one-step quantitative real-time PCR reaction, using components of the RNA UltraSense™ One-Step Kit (Life Technologies) together with Applied Biosystems TaqMan® primer-probes for hIL-17 and Cyclophilin. Real-time PCR plates were run on a ViiA™7 real time PCR machine (Applied Biosystems), data was analyzed, normalizing the Ct values for hIL-17 to an internal control, prior to determining the fold induction of each unknown sample, relative to the control.

Human AML MV-4-11 cells = assay: Inhibition of cell proliferation in MV4-11 cells (CellTiter Aqueous One); type: cell-based; conditions: MV4-11, 72 h
Outline: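 MV4-11 cells, 5×10^4 per well in IMDM with 10% FBS, were exposed to increasing compound concentrations or 0.1% DMSO for 72 h at 37 °C in triplicate. Viability was read by MTS (CellTiter Aqueous One) absorbance at 490 nm after 3-4 h. IC50 was derived from background-corrected signal relative to DMSO.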

hApoA-1 mRNA = assay: Up-regulation of hApoA-1 mRNA transcription in Huh7 cells; type: cell-based; conditions: Homo sapiens, Huh-7, EC170 of hApoA-1 mRNA up-regulation, 48 h, read-out: ApoA-1 activity
Method: Huh7 cells (2.5×10^5 per well) were plated in a 96-well plate using 100 μL DMEM per well, (Gibco DMEM supplemented with penicillin/streptomycin and 10% FBS), 72 h before the addition of the compound. The cells are treated with increasing concentrations of the compound or DMSO (0.1%), and incubated at 37° C., 5% CO2 for 48 h. Spent media was removed from the Huh-7 cells and placed on ice for immediate use with the “LDH cytotoxicity assay Kit II” from Abcam. The cells remaining in the plate were rinsed with 100 μL PBS. Cells were harvested using the mRNA Catcher PLUS kit according to manufacturer's instructions. The eluted mRNA was then used in a one-step quantitative real-time PCR reaction, using components of the RNA UltraSense™ One-Step Kit (Life Technologies) together with Applied Biosystems TaqMan® primer-probes for hApoA-1 and Cyclophilin. Real-time PCR plates were run on a ViiA™7 real time PCR machine (Applied Biosystems), data was analyzed, normalizing the Ct values for hApoA-1 to an internal control, prior to determining the fold induction of each unknown sample, relative to the control.

Compound | IC50 (hIL-6 mRNA) | IC50 [1] | In vivo activity (MV4-11 cells) | IC50 [2] | IC50 (hIL-17 mRNA) | IC50 (Human AML MV-4-11 cells) | melting point | EC170 (hApoA-1 mRNA)
Cc1noc(C)c1-c1cc(-c2c(C)nn(C)c2C)c2nc[nH]c2c1 [Example Compound 9, 3,5-dimethyl-4-(4-(1,3,5-trimethyl-1H-pyrazol-4-yl)-1H-benzo[d]imidazol-6-yl)isoxazole] | ≤ 300 nM | ≤ 300 nM | Active | 300 to 3000 nM | ≤ 300 nM | 300 to 3000 nM |  | 
Cc1ccncc1-c1cc(-c2c(C)noc2C)cc2[nH]c(N3CCOCC3)nc12 [Example Compound 196, 4-(6-(3,5-dimethylisoxazol-4-yl)-4-(4-methylpyridin-3-yl)-1H-benzo[d]imidazol-2-yl)morpholine] |  | 300 to 3000 nM |  | 300 to 3000 nM |  | 300 to 3000 nM | 137 to 141 °C | 
Cc1noc(C)c1-c1nc(NCc2ccccc2)c2ccccc2n1 [Example Compound 5, N-benzyl-2-(3,5-dimethylisoxazol-4-yl)quinazolin-4-amine] |  | 3000 to 30000 nM |  |  |  |  |  | ≤ 0.3 µM
Cc1noc(C)c1-c1cc(-c2cccc(C#N)c2C)c2nc[nH]c2c1 [Example Compound 57, 3-(6-(3,5-dimethyl-isoxazol-4-yl)-1H-benzo[d]imidazol-4-yl)-2-methyl-benzonitrile] | ≤ 300 nM | ≤ 300 nM |  | ≤ 300 nM | 300 to 3000 nM | ≤ 300 nM |  | ≤ 0.3 µM
Cc1noc(C)c1-c1cc(-c2c(C)nn(C)c2C)c2nc(N3CCN(C)CC3)[nH]c2c1 [Example Compound 181, 3,5-dimethyl-4-(2-(4-methylpiperazin-1-yl)-4-(1,3,5-trimethyl-1H-pyrazol-4-yl)-1H benzo[d]imidazol-6-yl)isoxazole] | ≤ 300 nM | ≤ 300 nM |  | ≤ 300 nM |  | ≤ 300 nM | 195 to 197 °C | 
Cc1noc(C)c1-c1cc(-c2c(C)noc2C)c2nc[nH]c2c1Br [Example Compound 192, 4,4′-(7-bromo-1H-benzo[d]imidazole-4,6-diyl)bis(3,5-dimethylisoxazole)] |  | ≤ 300 nM |  | 300 to 3000 nM |  | 3000 to 30000 nM | 133 to 135 °C | 
Cc1noc(C)c1-c1cc(-c2c(C)noc2C)c2c(C)n[nH]c2c1 [Example Compound 179, 4,4′-(3-methyl-1H-indazole-4,6-diyl)bis(3,5-dimethylisoxazole)] |  | ≤ 300 nM |  | 300 to 3000 nM |  | 300 to 3000 nM | 228 to 230 °C | 
